From the supplement of paper PMC10307832

Assays:
Test in all cases: relative viability (nuclei count vs DMSO), 5 days (fraction); higher = more cells survive
[1] = compound: Cc1ccc2nc(NCCN)c3ncc(C)n3c2c1 + CCNC(=O)c1noc(-c2cc(C(C)C)c(O)cc2O)c1-c1ccc(CN2CCOCC2)cc1 [Luminespib] (partner 0.01 µM)
Summary of the method: (§1)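 Values are medians from duplicate plates. Each reflects relative viability, defined as the nuclei count of treated wells over that of vehicle wells. Lung cancer cell lines in 1536-well plates were pin-tool dosed one day after seeding with one drug alone or with a fixed anchor-drug dose plus five library-drug doses (not always all listed) in √10 steps, then fixed, stained and imaged at 4× after 5 days.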

Salubrinal + AZD7762 = compound: O=C(/C=C/c1ccccc1)NC(NC(=S)Nc1cccc2cccnc12)C(Cl)(Cl)Cl [Salubrinal] + NC(=O)Nc1cc(-c2cccc(F)c2)sc1C(=O)N[C@H]1CCCNC1 [AZD7762] (partner 0.2 µM)
Summary of the method: as §1

[2] = compound: Cc1ccc2nc(NCCN)c3ncc(C)n3c2c1 + O=C(c1cc(Cc2n[nH]c(=O)c3ccccc23)ccc1F)N1CCN(C(=O)C2CC2)CC1 [Olaparib] (partner 8 µM)
Summary of the method: as §1

Salubrinal + Pictilisib = compound: O=C(/C=C/c1ccccc1)NC(NC(=S)Nc1cccc2cccnc12)C(Cl)(Cl)Cl [Salubrinal] + CS(=O)(=O)N1CCN(Cc2cc3nc(-c4cccc5[nH]ncc45)nc(N4CCOCC4)c3s2)CC1 [Pictilisib] (partner 1 µM)
Summary of the method: as §1

Cell Line | relative viability ([1]; first compound 0.04 µM) | relative viability ([1]; first compound 0.1265 µM) | relative viability ([1]; first compound 0.4 µM) | relative viability ([1]; first compound 1.265 µM) | relative viability ([1]; first compound 4 µM) | relative viability (Salubrinal + AZD7762; first compound 0.08 µM) | relative viability (Salubrinal + AZD7762; first compound 0.253 µM) | relative viability (Salubrinal + AZD7762; first compound 0.8 µM) | relative viability (Salubrinal + AZD7762; first compound 2.53 µM) | relative viability (Salubrinal + AZD7762; first compound 8 µM) | relative viability ([2]; first compound 0.04 µM) | relative viability ([2]; first compound 0.1265 µM) | relative viability ([2]; first compound 0.4 µM) | relative viability ([2]; first compound 1.265 µM) | relative viability ([2]; first compound 4 µM) | relative viability (Salubrinal + Pictilisib; first compound 0.08 µM) | relative viability (Salubrinal + Pictilisib; first compound 0.253 µM) | relative viability (Salubrinal + Pictilisib; first compound 0.8 µM) | relative viability (Salubrinal + Pictilisib; first compound 2.53 µM) | relative viability (Salubrinal + Pictilisib; first compound 8 µM)
NCI-H2405 | 0.841 | 0.631 | 0.732 | 0.563 | 0.595 | 0.872 | 0.704 | 0.835 | 0.813 | 0.664 | 0.91 | 0.795 | 0.927 | 0.825 | 0.779 | 0.338 | 0.442 | 0.458 | 0.406 | 0.431
LCLC-97TM1 | 0.761 | 0.713 | 0.752 | 0.699 | 0.678 | 0.268 | 0.288 | 0.227 | 0.139 | 0.202 | 0.491 | 0.428 | 0.462 | 0.417 | 0.338 | 0.261 | 0.162 | 0.2 | – | 0.181
NCI-H596 | 1.12 | 0.959 | 0.967 | 0.215 | 1.05 | 1.05 | 1 | 1.07 | 1.16 | 0.865 | 0.77 | 0.857 | 0.771 | 0.637 | 0.715 | 0.421 | 0.347 | 0.437 | 0.456 | 0.401
NCI-H727 | 0.36 | – | 0.358 | 0.385 | 0.4 | 0.574 | 0.648 | 0.649 | 0.583 | 0.584 | 0.561 | – | 0.731 | 0.785 | 0.709 | 0.318 | 0.312 | 0.433 | 0.197 | 0.359
H3255 | 0.878 | 1.01 | 0.824 | 0.926 | 0.76 | 0.967 | 0.786 | 1.03 | 0.87 | 0.859 | 0.561 | 0.482 | 0.516 | 0.59 | 0.47 | 0.561 | 0.535 | 0.576 | 0.456 | 0.487
NCI-H2170 | 0.637 | 0.699 | 0.516 | 0.855 | 0.64 | 0.953 | 0.942 | 0.995 | 0.792 | 0.878 | 0.627 | 0.702 | 0.56 | 0.549 | 0.637 | 0.29 | 0.315 | 0.335 | 0.294 | 0.271
NCI-H1437 | 1.13 | 1.09 | 1.14 | 1.08 | 1.06 | 1.19 | 1.1 | 1.16 | 1.11 | 1.04 | 0.641 | 0.613 | 0.616 | 0.643 | 0.553 | 0.449 | 0.484 | 0.415 | 0.417 | 0.328
NCI-H358 | 0.309 | 0.373 | 0.236 | 0.326 | 0.313 | 0.583 | 0.461 | 0.538 | 0.561 | 0.459 | 0.646 | 0.644 | 0.603 | 0.607 | 0.517 | 0.328 | 0.455 | 0.356 | 0.309 | 0.373
LU99A | 0.274 | 0.28 | 0.242 | 0.254 | 0.261 | 0.459 | 0.319 | 0.401 | 0.311 | 0.236 | 0.322 | 0.319 | 0.288 | 0.29 | 0.258 | 0.29 | 0.35 | 0.356 | 0.318 | 0.362
HCC-827 | 0.741 | 0.589 | 0.689 | 0.58 | 0.8 | 0.193 | 0.191 | 0.199 | 0.181 | 0.222 | 0.689 | 0.73 | 0.661 | 0.639 | 0.607 | 0.959 | 1.02 | 1.06 | 0.994 | 0.898
LK-2 | 0.198 | 0.194 | 0.182 | 0.185 | 0.197 | 0.39 | 0.486 | 0.489 | 0.441 | 0.358 | 0.707 | 0.778 | 0.706 | 0.757 | 0.672 | 0.59 | 0.541 | 0.666 | 0.512 | 0.575
BEN | 0.337 | 0.295 | 0.425 | 0.179 | 0.688 | 0.642 | 0.727 | 0.802 | 0.712 | 0.72 | 1.17 | 1.18 | 1.07 | 1.04 | 1.24 | 0.567 | 0.606 | 0.746 | 0.643 | 0.549
NCI-H23 | 0.207 | 0.227 | – | 0.201 | 0.217 | 0.175 | 0.206 | 0.236 | 0.23 | 0.23 | 0.37 | 0.324 | 0.319 | 0.276 | 0.242 | 0.511 | 0.583 | 0.548 | 0.442 | 0.486
NCI-H1395 | 0.828 | 0.701 | 0.664 | 0.534 | 0.761 | 0.376 | 0.443 | 0.389 | 0.432 | 0.385 | 0.47 | 0.467 | 0.491 | 0.429 | 0.437 | 0.621 | 0.651 | 0.609 | 0.603 | 0.504
201T | 1.1 | 1.05 | 1.06 | 1.12 | 1.07 | 0.627 | 0.616 | 0.741 | 0.648 | 0.637 | 0.945 | 0.839 | 0.804 | 0.829 | 0.823 | 0.591 | 0.636 | 0.778 | 0.706 | 0.678
NCI-H1793 | 0.577 | 0.168 | 0.182 | 0.181 | 0.215 | 0.676 | 0.407 | 0.505 | 0.366 | 0.276 | 1.06 | 0.812 | 0.836 | 0.651 | 0.795 | 0.309 | 0.319 | 0.306 | 0.316 | 0.285
